# Source: patent US7718663B2, “Quinazoline derivatives and medicaments” (Nippon Shinyaku Co., Ltd., priority 2002, dated 2010)
# Where a name gives a salt, the structure may show the parent alone.
# Assays:
# ICR male mice = assay: Mouse eye-scratching behavior induced by serotonin; type: in vivo; details: 0.5% test compound, 10 μl dropped into eye five minutes before 1% serotonin; counted for 10 minutes
# Experimental: Effect on Mouse Eye-scratching Behavior Induced by Serotonin
# After dropping 10 μl of 1% serotonin hydrochloride (hereinafter referred to as serotonin) into right eye of ICR male mice (4 to 6 weeks old), the number of eye-scratcing behavior induced by dropping of serotonin was measured for 10 minutes.
# As the test compound, inventive compounds of Example 1, Example 2, Example 3, Example 6, Example 12, Example 29, Example 52, Example 364, Example 381 and Example 383 were used. Five minutes before dropping serotonin, 10 μl of each test compound was dropped. Distilled water as a solvent of the test compound was dropped as a control group.
# rat μ opioid receptor = target: T1, rat μ opioid receptor (Rattus norvegicus, UniProt P33535); assay: μ opioid receptor binding assay ([3H]diprenorphine); details: rat μ opioid receptor-expressing cell membrane, 0.5 nM [3H]diprenorphine, 25° C. 60 minutes; read-out: Affinity for μ receptors Ki value
# T1 construct: expressed in transfected cells
# T1 sequence (P33535 whole entry): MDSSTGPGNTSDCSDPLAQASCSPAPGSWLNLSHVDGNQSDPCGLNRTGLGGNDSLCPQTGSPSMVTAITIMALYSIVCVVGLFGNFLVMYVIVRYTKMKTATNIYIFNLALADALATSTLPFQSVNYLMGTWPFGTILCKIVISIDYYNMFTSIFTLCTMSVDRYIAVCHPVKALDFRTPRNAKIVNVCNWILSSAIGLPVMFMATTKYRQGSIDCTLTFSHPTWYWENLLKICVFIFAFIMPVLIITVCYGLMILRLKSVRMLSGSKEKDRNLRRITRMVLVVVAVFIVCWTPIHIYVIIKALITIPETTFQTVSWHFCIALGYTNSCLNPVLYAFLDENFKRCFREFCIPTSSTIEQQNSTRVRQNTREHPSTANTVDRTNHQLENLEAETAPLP
# Experimental: μ Opioid Receptor Binding Assay
# A rat μ opioid receptor-expressing cell membrane preparation was prepared so that it contained 8.5 μg/mL of the membrane protein in a Tris buffer [50 mM Tris-HCl (pH7.8), 5 mM MgCl2, 1 mM EGTA, 0.1% BSA]. To this, [^3H]diprenorphine (diluted at the final concentration of 0.5 nM with the Tris buffer) and each test compound was added and the mixture was incubated at 25° C. for 60 minutes. Using a cell harvester and a washing solution [50 mM Tris-HCl (pH7.8), 4° C.], the membrane was recovered onto a GF/B filter which had been pretreated with 0.3% PEI, which was then washed further 3 times. The filter was transferred to a vial, to which a scintillator was added, and the radioactivity was measured using a liquid scintillation counter. Noted that a non-specific binding was regarded as a binding in the presence of […], and a specific binding was obtained by subtracting the non-specific binding from the total binding. From a ratio of binding inhibition in the presence of the tested substance, an IC50 value was obtained, and was then used together with the Kd value for [^3H]diprenorphine to calculate the Ki value for the tested substance.
# [1] = target: T2, human nociceptin receptor (Homo sapiens, UniProt P41146); assay: Nociceptin receptor binding assay ([3H]nociceptin); details: cell membrane of human nociceptin receptor-expressing cell, 0.08 nM [3H]nociceptin, 25° C. 60 minutes; read-out: Affinity for nociceptin receptors Ki value
# T2 construct: expressed in transfected cells
# T2 sequence (P41146 whole entry): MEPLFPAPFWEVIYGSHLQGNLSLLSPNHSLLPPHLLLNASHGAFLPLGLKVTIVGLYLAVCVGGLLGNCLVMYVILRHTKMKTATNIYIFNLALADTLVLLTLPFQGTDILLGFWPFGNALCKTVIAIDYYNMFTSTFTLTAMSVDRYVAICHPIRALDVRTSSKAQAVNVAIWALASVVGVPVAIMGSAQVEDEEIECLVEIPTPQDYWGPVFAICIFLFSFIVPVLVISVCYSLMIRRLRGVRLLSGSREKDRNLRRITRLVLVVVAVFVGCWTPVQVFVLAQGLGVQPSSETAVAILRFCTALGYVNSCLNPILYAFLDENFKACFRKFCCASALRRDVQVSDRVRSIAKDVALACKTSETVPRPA
# Experimental: Nociceptin Receptor Binding Assay
# A cell membrane suspension obtained from a human nociceptin receptor-expressing cell was prepared so that it contained 5 to 10 μg/mL of the membrane protein in a Tris buffer [50 mM Tris-HCl (pH7.8), 5 mM MgCl2, 1 mM EGTA [Ethylene Glycol Bis(β-aminoethylether)-N,N,N′,N′-tetraacetic Acid], 0.1% BSA (Bovine Serum Alubumin)]. To this, [^3H]nociceptin (diluted at the final concentration of 0.08 nM with the Tris buffer) and each test compound was added and the mixture was incubated at 25° C. for 60 minutes. Using a cell harvester and a washing solution [50 mM Tris-HCl (pH7.8), 4° C.], the membrane was recovered onto a GF/B filter which had been pretreated with 0.3% PEI (polyethylenimine), which was then washed further 3 times. The filter was transferred to a vial, to which a scintillator was added, and the radioactivity was measured using a liquid scintillation counter. Noted that a non-specific binding was regarded as a binding in the presence of 10 μM nociceptin, and a specific binding was obtained by subtracting the non-specific binding from the total binding. From a ratio of binding inhibition in the presence of the tested substance, an IC50 value was obtained, and was then used together with the Kd value for [^3H]nociceptin to calculate the Ki value for the tested substance.
Ki (rat μ opioid receptor),Ki [1],SMILES,Average number of scratching behavior (ICR male mice)
,,"Cc1ccc2nc(C(=O)NC3CCCCCC3)nc(N[C@H]3CCCC[C@H]3NC(=N)N)c2c1.Cl.Cl [Example 364, 4-[((1S,2R)-2-{[amino(imino)methyl]amino}cyclohexyl)amino]-N-cycloheptyl-6-methylquinazoline-2-carboxamide dihydrochloride]",5.17
,,"Cc1ccc2nc(C(=O)NCC(C)(C)C)nc(N[C@H]3CCCC[C@H]3NC(=N)N)c2c1.Cl.Cl [Example 29, 4-[((1S,2R)-2-{[amino(imino)methyl]amino}cyclohexyl)amino]-6-methyl-N-neopentylquinazoline-2-carboxamide dihydrochloride]",1.67
260 nM,0.14 nM,"Cc1ccc2nc(NC(=O)c3cc4ccccc4o3)nc(N[C@H]3CCCC[C@H]3NC(=N)N)c2c1.Cl.Cl [Example 3, N-{4-[((1S,2R)-2-{[amino(imino)methyl]amino}cyclohexyl)amino]-6-methylquinazolin-2-yl}-1-benzofuran-2-carboxamide dihydrochloride]",2.33
550 nM,0.67 nM,"COc1ccc(C(=O)Nc2nc(N[C@H]3CCCC[C@H]3NC(=N)N)c3cc(C)ccc3n2)c(OC)c1.Cl.Cl [Example 6, N-{4-[((1S,2R)-2-{[amino(imino)methyl]amino}cyclohexyl)amino]-6-methylquinazolin-2-yl}-2,4-dimethoxybenzamide dihydrochloride]",2.38
180 nM,0.15 nM,"Cc1ccc2nc(NC(=O)c3cc4ccccc4s3)nc(N[C@H]3CCCC[C@H]3NC(=N)N)c2c1.Cl.Cl [Example 1, N-{4-[((1S,2R)-2-{[amino(imino)methyl]amino}cyclohexyl)amino]-6-methylquinazolin-2-yl}-1-benzothiophene-2-carboxamide dihydrochloride]",9.57
,,"Cc1ccc2nc(C(=O)Nc3ccc(C)c(C)c3)nc(N[C@H]3CCCC[C@H]3NC(=N)N)c2c1.Cl.Cl [Example 52, 4-[((1S,2R)-2-{[amino(imino)methyl]amino}cyclohexyl)amino]-N-(3,4-dimethylphenyl)-6-methylquinazoline-2-carboxamide dihydrochloride]",4.50
,,"Cc1ccc2nc(C(=O)NCCc3ccsc3)nc(N[C@H]3CCCC[C@H]3NC(=N)N)c2c1.Cl.Cl [Example 381, 4-[((1S,2R)-2-{[amino(imino)methyl]amino}cyclohexyl)amino]-6-methyl-N-[2-(3-thienyl)ethyl]quinazoline-2-carboxamide dihydrochloride]",5.00
680 nM,0.57 nM,"COc1ccc(C(=O)Nc2nc(N[C@H]3CCCC[C@H]3NC(=N)N)c3cc(C)ccc3n2)cc1.Cl.Cl [Example 12, N-{4-[((1S,2R)-2-{[amino(imino)methyl]amino}cyclohexyl)amino]-6-methylquinazolin-2-yl}-4-methoxybenzamide dihydrochloride]",8.17
570 nM,0.65 nM,"COc1ccc2cc(C(=O)Nc3nc(N[C@H]4CCCC[C@H]4NC(=N)N)c4cc(C)ccc4n3)ccc2c1 [Example 7, N-{4-[((1S,2R)-2-{[amino(imino)methyl]amino}cyclohexyl)amino]-6-methylquinazolin-2-yl}-6-methoxy-2-naphthamide dihydrochloride]",
,,"Cc1ccc2nc(C(=O)NCC(C)C)nc(N[C@H]3CCCC[C@H]3NC(=N)N)c2c1.Cl.Cl [Example 383, 4-[((1S,2R)-2-{[amino(imino)methyl]amino}cyclohexyl)amino]-N-isobutyl-6-methylquinazoline-2-carboxamide dihydrochloride]",2.33
,,"COc1ccc(NC(=O)c2nc(N[C@H]3CCCC[C@H]3NC(=N)N)c3cc(C)ccc3n2)cc1.Cl.Cl [Example 2, 4-[((1S,2R)-2-{[amino(imino)methyl]amino}cyclohexyl)amino]-N-(4-methoxyphenyl)-6-methylquinazoline-2-carboxamide dihydrochloride]",7.25
